{"source": "patent US20110189675A1", "about": "“Method For Administering Anticoagulation Therapy” (Marshfield Clinic, priority 2007, published 2011)", "key": {"[1]": {"assay": "Pooled regression models of stable warfarin dose versus CYP4F2 rs2108622 genotype, three Caucasian cohorts", "format": "in vivo, human", "description": "Therefore, we conducted multiple regression analyses only on the *1 genotypes (n=1009), and used the observed mean dose (log scale) as the predicted value for those with only non-wild CYP2C9 alleles (*2/*2, *2/*3, and *3/*3, n=42). Accordingly, our models that include genetic variables are composites of multiple regression and simple mean-based estimation approaches.\nTo assess the relative contribution of clinical and genetic factors, three models were developed using different sets of potential predictor variables: clinical factors only (gender, age, body surface area, and target international normalized ratio), clinical factors plus CYP2C9 and VKORC1, and clinical factors CYP2C9, VKORC1, and rs2108622. A modified step-down approach^29 was used, starting with a “full” model which included all potential predictors pertinent to that model, effects to allow the three study sites to differ, two-factor interactions (including those by site), and quadratic terms for age, body surface area, and target international normalized ratio. […] The regression models were finalized after evaluating residuals and excluding cases with large residuals as outliers (|Studentized Residual|>3).\nThe explanatory power for the three final models was assessed graphically and by using the adjusted r-squared (R^2adj). The R^2adj statistic measures the proportion of the total variability explained by the model with adjustment for the number of parameters in the model. The statistic was directly calculated to use all cases under analysis by pooling across both parts of the composite models and by applying the final regression model to any outliers dropped when estimating the parameters in the regression models."}, "[2]": {"assay": "Stable therapeutic warfarin dose by CYP2C9, VKORC1 and rs2108622 (CYP4F2) genotype, 424 subjects", "format": "in vivo, human", "description": "The initial cohort was recruited at Marshfield Clinic, a multi-specialty group practice in Wisconsin as described.^6, 16 Patients were excluded from the study if they were known to have cancer, renal or hepatic insufficiency, or congestive heart failure.\nThe targeted human DMET 1.0 assay (Affymetrix, Inc, Santa Clara, Calif.) utilizes molecular inversion probes and GeneChip universal tag arrays to target 1228 single nucleotide polymorphisms (SNP) within 170 genes for metabolic enzymes and transport and regulatory proteins (Table 2).\nThe laboratory protocol followed the standard process described in the Targeted Genotyping System User Guide^25 except for a preliminary polymerase chain reaction (PCR)-amplification step aimed at resolving genotypes from 29 SNPs in regions containing pseudogenes and close homologues. GeneChip Targeted Genotyping Analysis software was used to make genotype calls and generate QC metrics including call rates, average signal, cluster quality, Hardy-Weinberg equilibrium, and reproducibility. […] Genotypes represented by the remaining 1217 SNP assays were called according to either predefined boundaries (derived from historical training sets) or dynamic clustering using the current data set. […] The remaining polymorphisms target rare mutations or SNPs prevalent in other racial groups.\nVKORC1 genotypes were determined on 436 Marshfield Clinic samples as described^6 and on the remaining 61 samples using Invader® chemistry in a laboratory test developed with analyte specific reagents manufactured by Third Wave Technologies (TWT, Madison, Wis.). The laboratory developed assay used analyte-specific reagents that detect CYP2C9*2, CYP2C9*3, and VKORC1 (position −1639).^26"}}, "data": [{"molecule": "CC(=O)CC(c1ccccc1)c1c(O)c2ccccc2oc1=O", "note": "(stereo not shown) [warfarin]", "values": [{"measurement": "increase in warfarin dose with each T allele (CYP4F2 effect, final pooled model)", "setting": "[1]; Marshfield", "result": 12.8, "unit": "%"}, {"measurement": "absolute contribution of CYP4F2 to stable warfarin dose", "setting": "[1]; Marshfield cohort", "result": 26, "unit": "%"}, {"measurement": "increase in warfarin dose with each T allele (CYP4F2 effect, final pooled model)", "setting": "[1]; University of Florida", "result": 6.8, "unit": "%"}, {"measurement": "increase in warfarin dose with each T allele (CYP4F2 effect, final pooled model)", "setting": "[1]; Washington University in St. Louis", "result": 3.8, "unit": "%"}, {"measurement": "absolute contribution of CYP4F2 to stable warfarin dose", "setting": "[1]; Washington University in St. Louis cohort", "result": 8, "unit": "%"}, {"measurement": "difference in warfarin dose requirement, two TT alleles versus two CC alleles of CYP4F2 rs2108622", "setting": "[1]; pooled analyses, three Caucasian cohorts stabilized on warfarin", "result": "about 1 mg/day"}, {"measurement": "Geometric Mean warfarin dose", "setting": "[2]; CYP2C9 *1/*1, VKORC1 CC, rs2108622 CC, N=13", "result": 20.0, "unit": "mg/week"}, {"measurement": "Geometric Mean warfarin dose", "setting": "[2]; CYP2C9 *1/*1, VKORC1 CC, rs2108622 CT, N=18", "result": 21.1, "unit": "mg/week"}, {"measurement": "Geometric Mean warfarin dose", "setting": "[2]; CYP2C9 *1/*1, VKORC1 CC, rs2108622 TT, N=2", "result": 34.5, "unit": "mg/week"}, {"measurement": "Geometric Mean warfarin dose", "setting": "[2]; CYP2C9 *1/*1, VKORC1 CG, rs2108622 CC, N=68", "result": 29.6, "unit": "mg/week"}, {"measurement": "Geometric Mean warfarin dose", "setting": "[2]; CYP2C9 *1/*1, VKORC1 CG, rs2108622 CT, N=46", "result": 31.9, "unit": "mg/week"}, {"measurement": "Geometric Mean warfarin dose", "setting": "[2]; CYP2C9 *1/*1, VKORC1 CG, rs2108622 TT, N=12", "result": 37.9, "unit": "mg/week"}, {"measurement": "Geometric Mean warfarin dose", "setting": "[2]; CYP2C9 *1/*1, VKORC1 GG, rs2108622 CC, N=64", "result": 39.5, "unit": "mg/week"}, {"measurement": "Geometric Mean warfarin dose", "setting": "[2]; CYP2C9 *1/*1, VKORC1 GG, rs2108622 CT, N=41", "result": 45.1, "unit": "mg/week"}, {"measurement": "Geometric Mean warfarin dose", "setting": "[2]; CYP2C9 *1/*1, VKORC1 GG, rs2108622 TT, N=8", "result": 47.3, "unit": "mg/week"}, {"measurement": "Geometric Mean warfarin dose", "setting": "[2]; CYP2C9 *1/*2, VKORC1 CC, rs2108622 CC, N=3", "result": 16.6, "unit": "mg/week"}, {"measurement": "Geometric Mean warfarin dose", "setting": "[2]; CYP2C9 *1/*2, VKORC1 CC, rs2108622 CT, N=5", "result": 19.6, "unit": "mg/week"}, {"measurement": "Geometric Mean warfarin dose", "setting": "[2]; CYP2C9 *1/*2, VKORC1 CC, rs2108622 TT, N=1", "result": 17.5, "unit": "mg/week"}, {"measurement": "Geometric Mean warfarin dose", "setting": "[2]; CYP2C9 *1/*2, VKORC1 CG, rs2108622 TT, N=5", "result": 31.0, "unit": "mg/week"}, {"measurement": "Geometric Mean warfarin dose", "setting": "[2]; CYP2C9 *1/*2, VKORC1 GG, rs2108622 CC, N=13", "result": 29.7, "unit": "mg/week"}, {"measurement": "Geometric Mean warfarin dose", "setting": "[2]; CYP2C9 *1/*2, VKORC1 GG, rs2108622 CT, N=17", "result": 34.1, "unit": "mg/week"}, {"measurement": "Geometric Mean warfarin dose", "setting": "[2]; CYP2C9 *1/*3, VKORC1 CC, rs2108622 CT, N=2", "result": 21.3, "unit": "mg/week"}, {"measurement": "Geometric Mean warfarin dose", "setting": "[2]; CYP2C9 *1/*3, VKORC1 CG, rs2108622 CC, N=13", "result": 21.5, "unit": "mg/week"}, {"measurement": "Geometric Mean warfarin dose", "setting": "[2]; CYP2C9 *1/*3, VKORC1 GG, rs2108622 CC, N=5", "result": 22.3, "unit": "mg/week"}, {"measurement": "Geometric Mean warfarin dose", "setting": "[2]; CYP2C9 *1/*3, VKORC1 GG, rs2108622 TT, N=3", "result": 34.5, "unit": "mg/week"}, {"measurement": "Geometric Mean warfarin dose", "setting": "[2]; CYP2C9 *2/*2, VKORC1 CG, rs2108622 CC, N=1", "result": 22.0, "unit": "mg/week"}, {"measurement": "Geometric Mean warfarin dose", "setting": "[2]; CYP2C9 *2/*2, VKORC1 CG, rs2108622 CT, N=1", "result": 28.0, "unit": "mg/week"}, {"measurement": "Geometric Mean warfarin dose", "setting": "[2]; CYP2C9 *2/*2, VKORC1 CG, rs2108622 TT, N=1", "result": 35.0, "unit": "mg/week"}, {"measurement": "Geometric Mean warfarin dose", "setting": "[2]; CYP2C9 *2/*2, VKORC1 GG, rs2108622 CC, N=1", "result": 18.5, "unit": "mg/week"}, {"measurement": "Geometric Mean warfarin dose", "setting": "[2]; CYP2C9 *2/*2, VKORC1 GG, rs2108622 CT, N=1", "result": 37.5, "unit": "mg/week"}, {"measurement": "Geometric Mean warfarin dose", "setting": "[2]; CYP2C9 *2/*2, VKORC1 GG, rs2108622 TT, N=1", "result": 35.0, "unit": "mg/week"}, {"measurement": "Geometric Mean warfarin dose", "setting": "[2]; CYP2C9 *2/*3, VKORC1 CC, rs2108622 CC, N=1", "result": 20.0, "unit": "mg/week"}, {"measurement": "Geometric Mean warfarin dose", "setting": "[2]; CYP2C9 *2/*3, VKORC1 CG, rs2108622 CT, N=1", "result": 22.5, "unit": "mg/week"}, {"measurement": "Geometric Mean warfarin dose", "setting": "[2]; CYP2C9 *2/*3, VKORC1 CG, rs2108622 TT, N=1", "result": 15.0, "unit": "mg/week"}, {"measurement": "Geometric Mean warfarin dose", "setting": "[2]; CYP2C9 *2/*3, VKORC1 GG, rs2108622 CC, N=3", "result": 15.3, "unit": "mg/week"}, {"measurement": "Geometric Mean warfarin dose", "setting": "[2]; CYP2C9 *3/*3, VKORC1 CG, rs2108622 CC, N=1", "result": 6.5, "unit": "mg/week"}, {"measurement": "Geometric Mean warfarin dose", "setting": "[2]; CYP2C9 *3/*3, VKORC1 CG, rs2108622 CT, N=1", "result": 4.5, "unit": "mg/week"}]}]}
